The values below come from patent publication US12281102B2, “Inhibitors of APOL1 and methods of using same” (Vertex Pharmaceuticals Incorporated, priority 2020, dated 2025).

A value given as a limit tells only on which side of the number the result lay.

The test deals with T1, G1 APOL1 (Homo sapiens, UniProt O14791, I384M/S342G).
T1 construct: expressed in transfected cells
T1 sequence (O14791 28-398 S342G/I384M): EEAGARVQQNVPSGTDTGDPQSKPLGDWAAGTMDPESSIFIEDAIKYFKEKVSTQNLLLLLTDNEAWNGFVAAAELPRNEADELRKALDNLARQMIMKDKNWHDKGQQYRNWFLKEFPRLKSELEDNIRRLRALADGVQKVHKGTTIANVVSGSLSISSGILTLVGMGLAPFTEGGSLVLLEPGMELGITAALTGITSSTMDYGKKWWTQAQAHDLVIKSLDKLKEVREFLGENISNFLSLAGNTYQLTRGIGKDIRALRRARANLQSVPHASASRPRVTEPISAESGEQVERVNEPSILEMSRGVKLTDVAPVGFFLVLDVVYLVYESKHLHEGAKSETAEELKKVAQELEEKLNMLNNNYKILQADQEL
The experiment in a line: Acute APOL1 Thallium Assay with inducible stable clones of HEK 293 cells. It counts as cell-based. The following applies: HEK 293 T-Rex inducible stable clone expressing G1 APOL1; read-out: Thallium Assay (IC50). An outline of the steps: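 A tetracycline-inducible HEK293 T-Rex clone (G1 DC3.25) expressing G1 APOL1 was plated at 26,000 cells/well, with tetracycline added at plating to induce expression. Cells were loaded with an AM-ester thallium-sensitive dye and stimulated with Tl+. Pore activity was read as the FLIPR Tetra fluorescence increase from Tl+ influx.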
Regarding `O=C(NC[C@H]1C[C@@H](c2c(-c3ccc(F)cc3)[nH]c3c(F)cc(F)cc32)C1)C(F)F` [Compound 219], the 50% inhibitory concentration (IC50) fell in the range of 0.25 to 1 µM. In the case of `O=C(NC[C@H]1C[C@@H](c2c(-c3ccc(F)cc3)[nH]c3c(F)cc(F)cc32)C1)C1CCO1` (stereo partly shown) [Compound 220] it was 0.25 to 1 µM; in that of `O=C(NC[C@H]1C[C@H](c2c(-c3ccc(F)cc3)[nH]c3c(F)cc(F)cc32)C1)C1(O)COC1` [Compound 221], 0.25 to 1 µM. As for `O=C(NC[C@H]1C[C@H](c2c(-c3ccc(F)cc3)[nH]c3c(F)cc(F)cc32)C1)[C@H]1NCC[C@@H]1O` [Compound 222], the IC50 fell in the range of 0.25 to 1 µM. As to `O=C(NC[C@H]1C[C@H](c2c(-c3ccc(F)cc3)[nH]c3c(F)cc(F)cc32)C1)C1CC(F)(F)CN1` (stereo partly shown) [Compound 223], the IC50 lay within 0.25 to 1 µM. As for `CC(=O)N[C@@H](CO)C(=O)NC[C@H]1C[C@H](c2c(-c3ccc(F)cc3)[nH]c3c(F)cc(F)cc32)C1` [Compound 224], the figure is 0.25 to 1 µM.

`O=C(NC[C@H]1C[C@H](c2c(-c3ccc(F)cc3)[nH]c3c(F)cc(F)cc32)C1)[C@@H]1C[C@@H](O)CN1` [Compound 225]: the IC50 was in the range of 0.25 to 1 µM. On to `O=C(NC[C@H]1C[C@@H](c2c(-c3ccc(F)cc3)[nH]c3c(F)cc(F)cc32)C1)C1COC1` [Compound 226], for which the IC50 was in the range of 0.25 to 1 µM. `C[C@H](NC(=O)OC(C)(C)C)C(=O)NC[C@H]1C[C@H](c2c(-c3ccc(F)cc3)[nH]c3c(F)cc(F)cc32)C1` [Compound 227]: the IC50 is above 1 µM. As for `O=C(NC[C@H]1C[C@H](c2c(-c3ccc(F)cc3)[nH]c3c(F)cc(F)cc32)C1)[C@H]1NCC[C@H]1O` [Compound 229], the figure is above 1 µM; as for `N#CCC(=O)NC[C@H]1C[C@@H](c2c(-c3ccc(F)cc3)[nH]c3c(F)cc(F)cc32)C1` [Compound 230], above 1 µM; as for `O=C(CC1CS(=O)(=O)C1)NC[C@H]1C[C@@H](c2c(-c3ccc(F)cc3)[nH]c3c(F)cc(F)cc32)C1` [Compound 231], above 1 µM. In the case of `NS(=O)(=O)CCC(=O)NC[C@H]1C[C@@H](c2c(-c3ccc(F)cc3)[nH]c3c(F)cc(F)cc32)C1` [Compound 232] it was above 1 µM; in that of `NC(C(=O)NC[C@H]1C[C@H](c2c(-c3ccc(F)cc3)[nH]c3c(F)cc(F)cc32)C1)C(F)(F)F` (stereo partly shown) [Compound 233], above 1 µM; in that of `O=C(NC[C@H]1C[C@@H](c2c(-c3ccc(F)cc3)[nH]c3c(F)cc(F)cc32)C1)C1(O)CC1` [Compound 234], above 1 µM.

Consider `O=C1CC[C@@H](C(=O)NC[C@H]2C[C@H](c3c(-c4ccc(F)cc4)[nH]c4c(F)cc(F)cc43)C2)N1` [Compound 235], for which the IC50 is above 1 µM. As for `C[C@@H](N)C(=O)NC[C@H]1C[C@H](c2c(-c3ccc(F)cc3)[nH]c3c(F)cc(F)cc32)C1` [Compound 236], the figure is above 1 µM; as for `O=C1C[C@H](C(=O)NC[C@H]2C[C@H](c3c(-c4ccc(F)cc4)[nH]c4c(F)cc(F)cc43)C2)N1` [Compound 237], above 1 µM.

Take `O=C(Cc1cnccn1)NC[C@H]1C[C@H](c2c(-c3ccc(F)cc3)[nH]c3c(F)cc(F)cc32)C1` [Compound 238]: the IC50 was above 1 µM. In the case of `CN1CCC(CC(=O)NC[C@H]2C[C@@H](c3c(-c4ccc(F)cc4)[nH]c4c(F)cc(F)cc43)C2)CC1` [Compound 239] it was above 1 µM.

With `CO[C@H](C)C(=O)NC[C@H]1C[C@H](c2c(-c3ccc(F)cc3)[nH]c3c(F)cc(F)cc32)C1` [Compound 240], the IC50 was above 1 µM. `O=C1C[C@@H](C(=O)NC[C@H]2C[C@@H](c3c(-c4ccc(F)cc4)[nH]c4c(F)cc(F)cc43)C2)N1` [Compound 241]: the IC50 was above 1 µM. In the case of `NC(=O)CC(=O)NC[C@H]1C[C@@H](c2c(-c3ccc(F)cc3)[nH]c3c(F)cc(F)cc32)C1` [Compound 243] it was above 1 µM; in that of `NC1(C(=O)NC[C@H]2C[C@H](c3c(-c4ccc(F)cc4)[nH]c4c(F)cc(F)cc43)C2)CCC1` [Compound 244], above 1 µM. As for `O=C(NC[C@H]1C[C@H](c2c(-c3ccc(F)cc3)[nH]c3c(F)cc(F)cc32)C1)[C@H]1CCN1` [Compound 245], the figure is above 1 µM; as for `O=C(NC[C@H]1C[C@H](c2c(-c3ccc(F)cc3)[nH]c3c(F)cc(F)cc32)C1)[C@@H]1C[C@H](F)CN1` [Compound 246], above 1 µM. Take `O=C(NC[C@H]1C[C@@H](c2c(-c3ccc(F)cc3)[nH]c3c(F)cc(F)cc32)C1)C(O)C1CC1` (stereo partly shown) [Compound 247]: the IC50 is above 1 µM.

Take `O=C(Cc1ncccn1)NC[C@H]1C[C@H](c2c(-c3ccc(F)cc3)[nH]c3c(F)cc(F)cc32)C1` [Compound 248]: the IC50 is above 1 µM. As to `O=C1CC[C@H](C(=O)NC[C@H]2C[C@@H](c3c(-c4ccc(F)cc4)[nH]c4c(F)cc(F)cc43)C2)N1` [Compound 249], the IC50 is above 1 µM.

Turning to `CC(=O)NCC(=O)NC[C@H]1C[C@H](c2c(-c3ccc(F)cc3)[nH]c3c(F)cc(F)cc32)C1` [Compound 250], the IC50 is above 1 µM.

For `O=C(Cc1ccncn1)NC[C@H]1C[C@H](c2c(-c3ccc(F)cc3)[nH]c3c(F)cc(F)cc32)C1` [Compound 251], the IC50 is above 1 µM. As for `CC(C)(C)OC(=O)N1C[C@@H](O)C[C@H]1C(=O)NC[C@H]1C[C@H](c2c(-c3ccc(F)cc3)[nH]c3c(F)cc(F)cc32)C1` [Compound 252], the figure is above 1 µM; as for `O=C1CCC[C@@H](C(=O)NC[C@H]2C[C@H](c3c(-c4ccc(F)cc4)[nH]c4c(F)cc(F)cc43)C2)N1` [Compound 253], above 1 µM; as for `O=C(NC[C@H]1C[C@H](c2c(-c3ccc(F)cc3)[nH]c3c(F)cc(F)cc32)C1)[C@@H]1C[C@H](O)CN1` [Compound 254], above 1 µM.

Take `CC(C)(C)OC(=O)N1CC[C@H](O)[C@H]1C(=O)NC[C@H]1C[C@H](c2c(-c3ccc(F)cc3)[nH]c3c(F)cc(F)cc32)C1` [Compound 255]: the concentration for half-maximal inhibition (IC50) was above 1 µM.

Consider `CC(=O)N1CC[C@@H](C(=O)NC[C@H]2C[C@H](c3c(-c4ccc(F)cc4)[nH]c4c(F)cc(F)cc43)C2)C1` [Compound 256], for which the IC50 is above 1 µM. As for `O=C(NC[C@H]1C[C@H](c2c(-c3ccc(F)cc3)[nH]c3c(F)cc(F)cc32)C1)[C@H]1COCCN1` [Compound 257], the figure is above 1 µM; as for `CC[C@H](NC(=O)OC(C)(C)C)C(=O)NC[C@H]1C[C@H](c2c(-c3ccc(F)cc3)[nH]c3c(F)cc(F)cc32)C1` [Compound 258], above 1 µM; as for `CN1CCC(CC(=O)NC[C@H]2C[C@@H](c3c(-c4ccc(F)cc4)[nH]c4c(F)cc(F)cc43)C2)C1` (stereo partly shown) [Compound 260], above 1 µM. As for `O=C(CC1CS(=O)(=O)C1)NC[C@H]1C[C@H](c2c(-c3ccc(F)cc3)[nH]c3c(F)cc(F)cc32)C1` [Compound 261], the figure is above 1 µM; as for `CS(=O)(=O)CCC(=O)NC[C@H]1C[C@@H](c2c(-c3ccc(F)cc3)[nH]c3c(F)cc(F)cc32)C1` [Compound 262], above 1 µM. As for `CCS(=O)(=O)NCC(=O)NC[C@H]1C[C@@H](c2c(-c3ccc(F)cc3)[nH]c3c(F)cc(F)cc32)C1` [Compound 263], the figure is above 1 µM; as for `N[C@@H](C(=O)NC[C@H]1C[C@H](c2c(-c3ccc(F)cc3)[nH]c3c(F)cc(F)cc32)C1)C1CC1` [Compound 264], above 1 µM. With `O=C(NC[C@H]1C[C@H](c2c(-c3ccc(F)cc3)[nH]c3c(F)cc(F)cc32)C1)c1ncccn1` [Compound 265], the IC50 was above 1 µM. As for `CC(F)(F)C(=O)NC[C@H]1C[C@@H](c2c(-c3ccc(F)cc3)[nH]c3c(F)cc(F)cc32)C1` [Compound 266], the figure is above 1 µM; as for `CC[C@@H](N)C(=O)NC[C@H]1C[C@H](c2c(-c3ccc(F)cc3)[nH]c3c(F)cc(F)cc32)C1` [Compound 267], above 1 µM. As for `O=C1CC[C@H](C(=O)NC[C@H]2C[C@H](c3c(-c4ccc(F)cc4)[nH]c4c(F)cc(F)cc43)C2)N1` [Compound 268], the figure is above 1 µM; as for `O=C1NCC(C(=O)NC[C@H]2C[C@H](c3c(-c4ccc(F)cc4)[nH]c4c(F)cc(F)cc43)C2)O1` (stereo partly shown) [Compound 269], above 1 µM. As for `CO[C@@H](C)C(=O)NC[C@H]1C[C@H](c2c(-c3ccc(F)cc3)[nH]c3c(F)cc(F)cc32)C1` [Compound 270], the figure is above 1 µM; as for `CS(=O)(=O)NCC(=O)NC[C@H]1C[C@@H](c2c(-c3ccc(F)cc3)[nH]c3c(F)cc(F)cc32)C1` [Compound 271], above 1 µM.

Regarding `O=C(CN1CCOCC1)NC[C@H]1C[C@@H](c2c(-c3ccc(F)cc3)[nH]c3c(F)cc(F)cc32)C1` [Compound 272], the IC50 is above 1 µM. As for `O=C1CC(C(=O)NC[C@H]2C[C@H](c3c(-c4ccc(F)cc4)[nH]c4c(F)cc(F)cc43)C2)CN1` (stereo partly shown) [Compound 273], the figure is above 1 µM; as for `CC(=O)N1CC[C@H](C(=O)NC[C@H]2C[C@H](c3c(-c4ccc(F)cc4)[nH]c4c(F)cc(F)cc43)C2)C1` [Compound 274], above 1 µM; as for `O=C(NC[C@H]1C[C@H](c2c(-c3ccc(F)cc3)[nH]c3c(F)cc(F)cc32)C1)[C@H]1C[C@@H](O)CN1` [Compound 275], above 1 µM. In the case of `O=C(NC[C@H]1C[C@H](c2c(-c3ccc(F)cc3)[nH]c3c(F)cc(F)cc32)C1)[C@@H]1COCCN1` [Compound 276] it was above 1 µM.

A word on the IC50: it is the concentration that inhibits the measured activity by half.
